# Values of other authors, collected in US20090011059A1, “Ginger Extract For Inhibiting Human Drug Transporters” (priority 2005, published 2009).
# Settings: in vivo
row,Compound,increase of the plasma exposure of cyclosporin A
1,vitamin E,roughly two-fold

# Settings: not given
row,Compound,oral availability [%]
1,CO[C@H]1C[C@@H]2CC[C@@H](C)[C@@](O)(O2)C(=O)C(=O)N2CCCC[C@H]2C(=O)O[C@H]([C@H](C)C[C@@H]2CC[C@@H](O)[C@H](OC)C2)CC(=O)[C@H](C)/C=C(\C)[C@@H](O)[C@@H](OC)C(=O)[C@H](C)C[C@H](C)/C=C/C=C/C=C/1C [Sirolimus],15
2,CC(=O)O[C@@]12CO[C@@H]1C[C@H](O)[C@@]1(C)C(=O)[C@H](O)C3=C(C)[C@@H](OC(=O)[C@H](O)[C@@H](NC(=O)OC(C)(C)C)c4ccccc4)C[C@@](O)([C@@H](OC(=O)c4ccccc4)[C@H]21)C3(C)C [Docetaxel],8
3,CC[C@H](C)C(=O)O[C@H]1C[C@@H](C)C=C2C=C[C@H](C)[C@H](CC[C@@H]3C[C@@H](O)CC(=O)O3)[C@H]21 [Lovastatin],4
4,CC[C@@]1(O)C(=O)OCc2c1cc1n(c2=O)Cc2cc3c(CN(C)C)c(O)ccc3nc2-1 [Topotecan],42
5,C=CC[C@@H]1/C=C(\C)C[C@H](C)C[C@H](OC)[C@H]2O[C@@](O)(C(=O)C(=O)N3CCCC[C@H]3C(=O)O[C@H](/C(C)=C/[C@@H]3CC[C@@H](O)[C@H](OC)C3)[C@H](C)[C@@H](O)CC1=O)[C@H](C)C[C@@H]2OC [Tacrolimus],16
